According to patent US20110104716A1, “NOVEL METHOD FOR SCREENING BRAIN-ACTIVE COMPOUNDS” (priority 2007, published 2011):
Entries after “also recorded” stand apart in the source; their conditions may differ. Like-named read-outs stand apart in the source and are kept apart here.

System: hippocampal slices
Assay: Hippocampal slice cultures and induction of LTP (immunohistochemistry of LTP markers); on pCREB: key: ±: no change in the activation status; ++++: a qualitative maximal activation; ++: a half-maximum activation; −: a reduction of activation; on pMAPK: key: ±: no change in the activation status; ++++: a qualitative maximal activation; ++: a half-maximum activation; −: a reduction of activation
Format: cell-based, Wistar rats
Settings: for AMPA rec. (AMPA receptors on the cell surface): 15 min treatment; for pMAPK / pCREB: relative activation vs vehicle treated sister cultures, 15 min treatment after 48 h in culture
Method: Seven-day-old Wistar rats were decapitated using a guillotine. In less than 1 minute the skull was opened, the cerebral hemispheres were separated and transferred and both hippocampi were dissected and transferred into ice cold buffer containing 137 mM NaCl, 5 mM KCl, 0.85 mM Na2HPO4, 1.5 mM CaCl2, 0.66 mM KH2PO4, 0.28 mM MgSO4, 1 mM MgCl2, 2.7 mM NaHCO3, 1 mM Kynurenic acid and 0.6% D-glucose. Transversal hippocampal slices (typically 400 μm) were prepared using a vibrating blade microtome (VT1200S; Leica Microsystems (Schweiz) AG, Heerbrugg, Switzerland) in the same buffer. Hippocampal slices were individually placed on a membrane insert (Millicell Culture Plate Inserts, 0.4 μm) and cultivated at 35° C., 5% CO2, 95% humidity in a medium containing a 1:1 mixture of BME and MEM (both from Invitrogen) containing 25% heat-inactivated horse serum, 1× GlutaMAX, 1× Penicillin/Streptomycin, 0.6% glucose and 1 mM Kynurenic acid (Stoppini et al. 1991 J Neurosci Methods 37(2):173-82). […] Sarcosine (100 μM) and ALX5407 (20 nM) were used routinely as positive controls. […] After the treatments, sections were washed and fixed for immunohistochemistry. Markers of enhanced synaptic activity, normally associated with LTP, representing an in vitro (or ex vivo) model of learning and memory, were quantified (see Table 1, below). Table 1. Relative activation of synaptic markers after treatment with both extracts and some of their constituent compounds in comparison to sister cultures treated with buffer. The activation of any of these markers (or a combination thereof) is observed in classical LTP experiments. Data are compared to vehicle treated sections, which is set as 100%.

[1] = compared to vehicle treated sections set as 100%
[2] = class symbol, vs vehicle treated sister cultures

| Molecule | LTP-inducing activity (biochemical markers typical for LTP) | AMPA rec. (AMPA receptors on the cell surface) [1] | pMAPK | pCREB | AMPA rec. (AMPA receptors on the cell surface) [2] | LTP-inducing activity (biochemical markers typical for LTP) (listed as p-cemene) |
| --- | --- | --- | --- | --- | --- | --- |
| Cc1ccc(C(C)C)cc1O [Carvacrol] | lack the LTP-inducing activity | 0-176% | − |  |  |  |
| Caryophyllene | lack the LTP-inducing activity |  | ± | ± |  |  |
| C=CC(C)(O)CCC=C(C)C (centres unmarked) [Linalool] | lack the LTP-inducing activity |  | ± | ± | ± |  |
| Cc1ccc(C(C)C)c(O)c1 [Thymol] | induced biochemical markers typical for LTP; also recorded: induce activation of biochemical pathway leading to LTP induction | 250-767% |  | ++++ |  |  |
| NCC(=O)O [Glycine] |  |  | ++ | ++ |  |  |
| Cc1ccc(C(C)C)cc1 [P-Cymene] | induce activation of biochemical pathway leading to LTP induction |  | ++++ | ++ | ± | induced biochemical markers typical for LTP |
